test system: HT29 cells; assay: Inhibition of cell necrosis (CCK8 method), induced programmed necrosis of HT29 cells; format: cell-based; settings: Homo sapiens, HT-29; rescue from necrosis induced by TNF-α 20 ng/mL, AT-406 1 μM, Z-VAD-FMK 20 μM; 16-20 hours; CCK-8, OD 450 nm
In short: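 HT29 cells in McCOY's 5A with 10% FBS were pre-treated for 30 min with compound (9 fourfold steps, 25000 to 0.38 nM final, 0.25% DMSO). Necrosis was then induced with TNF-α 20 ng/mL, AT-406 1 μM and Z-VAD-FMK 20 μM for 16-20 h. Viability was read by CCK-8 OD450, normalized between uninduced and induced wells, and IC50 was curve-fitted.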

Row | Structure (SMILES) | IC50 [nM]
1 | Cc1ccc(OCCCC(C)(C)O)cc1-c1ccnc(NC(=O)c2nnc(Cc3ccc(F)cc3)[nH]2)c1 [Example 188, 5-(4-fluorobenzyl)-N-(4-(5-((4-hydroxy-4-methylpentyl)oxy)-2-methylphenyl)pyridin-2-yl)-4H-1,2,4-triazole-3-carboxamide] | ≤ 100
2 | Cc1ccc(OCCCC(C)(C)O)cc1-c1ccnc(NC(=O)c2nnc(Cc3ccc(Cl)cc3)[nH]2)c1 [Example 189, 5-(4-chlorobenzyl)-N-(4-(5-((4-hydroxy-4-methylpentyl)oxy)-2-methylphenyl)pyridin-2-yl)-4H-1,2,4-triazole-3-carboxamide] | ≤ 100
3 | COc1ccc(Cc2nnc(C(=O)Nc3cc(-c4cc(OCCCC(C)(C)O)ccc4C)ccn3)[nH]2)cc1 [Example 190, 5-(4-methoxybenzyl)-N-(4-(5-((4-hydroxy-4-methylpentyl)oxy)-2-methylphenyl)pyridin-2-yl)-4H-1,2,4-triazole-3-carboxamide] | 100 to 1000
4 | Cc1ccc(OCCCC(C)(C)O)cc1-c1ccnc(NC(=O)c2nnc(Cc3ccc(C#N)cc3)[nH]2)c1 [Example 191, 5-(4-cyanobenzyl)-N-(4-(5-((4-hydroxy-4-methylpentyl)oxy)-2-methylphenyl)pyridin-2-yl)-4H-1,2,4-triazole-3-carboxamide] | 100 to 1000
5 | Cc1ccc(OCCCC(C)(C)O)cc1-c1ccnc(NC(=O)c2nnc(Cc3ccc(F)c(F)c3)[nH]2)c1 [Example 192, 5-(3,4-difluorobenzyl)-N-(4-(5-((4-hydroxy-4-methylpentyl)oxy)-2-methylphenyl)pyridin-2-yl)-4H-1,2,4-triazole-3-carboxamide] | ≤ 100
6 | CC(C)(O)CCCOc1ccc(C#N)c(-c2ccnc(NC(=O)c3nnc(Cc4ccccc4)[nH]3)c2)c1 [Example 193, 5-benzyl-N-(4-(2-cyano-5-((4-hydroxy-4-methylpentyl)oxy)phenyl)pyridin-2-yl)-4H-1,2,4-triazole-3-carboxamide] | ≤ 100
7 | CC(C)(O)CCCOc1ccc(C(F)(F)F)c(-c2ccnc(NC(=O)c3nnc(Cc4ccccc4)[nH]3)c2)c1 [Example 194, 5-benzyl-N-(4-(5-((4-hydroxy-4-methylpentyl)oxy)-2-(trifluoromethyl)phenyl)pyridin-2-yl)-4H-1,2,4-triazole-3-carboxamide] | ≤ 100
8 | CC(C)(C)OCCOc1ccc(C=O)c(-c2ccnc(NC(=O)c3nnc(Cc4ccccc4)[nH]3)c2)c1 [Example 195, 5-benzyl-N-(4-(5-(2-(tert-butoxy)ethoxy)-2-formylphenyl)pyridin-2-yl)-4H-1,2,4-triazole-3-carboxamide] | ≤ 100
9 | COc1ccc(C)c(-c2cncc(NC(=O)c3nnc(Cc4ccccc4)[nH]3)c2)c1 [Example 196, 5-benzyl-N-(5-(5-methoxy-2-methylphenyl)pyridin-3-yl)-4H-1,2,4-triazole-3-carboxamide] | > 10000
10 | CCOc1ccc(C)c(-c2cncc(NC(=O)c3nnc(Cc4ccccc4)[nH]3)c2)c1 [Example 197, 5-benzyl-N-(5-(5-ethoxy-2-methylphenyl)pyridin-3-yl)-4H-1,2,4-triazole-3-carboxamide] | > 10000
11 | CCCCOc1ccc(C)c(-c2ccnc(NC(=O)c3nnc(Cc4ccccc4)[nH]3)c2)c1 [Example 198, 5-benzyl-N-(4-(5-butoxy-2-methylphenyl)pyridin-2-yl)-4H-1,2,4-triazole-3-carboxamide] | 100 to 1000
12 | Cc1ccc(C(C)(C)O)cc1-c1ccnc(NC(=O)c2nnc(Cc3ccccc3)[nH]2)c1 [Example 199, 5-benzyl-N-(4-(5-(2-hydroxypropan-2-yl)-2-methylphenyl)pyridin-2-yl)-4H-1,2,4-triazole-3-carboxamide] | 1000 to 10000
13 | Cc1ccc(OCCCC(C)(C)O)cc1-c1ccnc(NC(=O)c2nnc(Cc3cc(F)cc(F)c3)[nH]2)c1 [Example 200, 5-(3,5-difluorobenzyl)-N-(4-(5-((4-hydroxy-4-methylpentyl)oxy)-2-methylphenyl)pyridin-2-yl)-4H-1,2,4-triazole-3-carboxamide] | ≤ 100
14 | Cc1ccc(OCCCC(C)(C)O)cc1-c1ccnc(NC(=O)c2nnc(Cc3ccc(F)cc3F)[nH]2)c1 [Example 201, 5-(2,4-difluorobenzyl)-N-(4-(5-((4-hydroxy-4-methylpentyl)oxy)-2-methylphenyl)pyridin-2-yl)-4H-1,2,4-triazole-3-carboxamide] | ≤ 100
15 | Cc1ccc(OCCCC(C)(C)O)cc1-c1ccnc(NC(=O)c2nnc(Cc3cccc(F)c3F)[nH]2)c1 [Example 202, 5-(2,3-difluorobenzyl)-N-(4-(5-((4-hydroxy-4-methylpentyl)oxy)-2-methylphenyl)pyridin-2-yl)-4H-1,2,4-triazole-3-carboxamide] | ≤ 100
16 | Cc1ccc(OCCCC(C)(C)O)cc1-c1ccnc(NC(=O)c2nnc(Cc3cc(F)ccc3F)[nH]2)c1 [Example 203, 5-(2,5-difluorobenzyl)-N-(4-(5-((4-hydroxy-4-methylpentyl)oxy)-2-methylphenyl)pyridin-2-yl)-4H-1,2,4-triazole-3-carboxamide] | ≤ 100
17 | Cc1ccc(OCCCC(C)(C)O)cc1-c1ccnc(NC(=O)c2nnc(Cc3cc(Cl)ccc3F)[nH]2)c1 [Example 204, 5-(5-chloro-2-fluorobenzyl)-N-(4-(5-((4-hydroxy-4-methylpentyl)oxy)-2-methylphenyl)pyridin-2-yl)-4H-1,2,4-triazole-3-carboxamide] | ≤ 100
18 | Cc1ccc(OCCCC(C)(C)O)cc1-c1ccnc(NC(=O)c2nnc(Cc3cc(F)cc(Cl)c3)[nH]2)c1 [Example 205, 5-(5-chloro-3-fluorobenzyl)-N-(4-(5-((4-hydroxy-4-methylpentyl)oxy)-2-methylphenyl)pyridin-2-yl)-4H-1,2,4-triazole-3-carboxamide] | 100 to 1000
19 | Cc1ccc(OCCCC(C)(C)O)cc1-c1ccnc(NC(=O)c2nnc(Cc3ccc(F)c(Cl)c3)[nH]2)c1 [Example 206, 5-(3-chloro-4-fluorobenzyl)-N-(4-(5-((4-hydroxy-4-methylpentyl)oxy)-2-methylphenyl)pyridin-2-yl)-4H-1,2,4-triazole-3-carboxamide] | 100 to 1000
20 | Cc1cc(F)cc(Cc2nnc(C(=O)Nc3cc(-c4cc(OCCCC(C)(C)O)ccc4C)ccn3)[nH]2)c1 [Example 207, 5-(3-fluoro-5-methylbenzyl)-N-(4-(5-((4-hydroxy-4-methylpentyl)oxy)-2-methylphenyl)pyridin-2-yl)-4H-1,2,4-triazole-3-carboxamide] | 100 to 1000
21 | Cc1cc(Cc2nnc(C(=O)Nc3cc(-c4cc(OCCCC(C)(C)O)ccc4C)ccn3)[nH]2)ccc1F [Example 208, 5-(4-fluoro-3-methylbenzyl)-N-(4-(5-((4-hydroxy-4-methylpentyl)oxy)-2-methylphenyl)pyridin-2-yl)-4H-1,2,4-triazole-3-carboxamide] | 100 to 1000
22 | COc1cc(Cc2nnc(C(=O)Nc3cc(-c4cc(OCCCC(C)(C)O)ccc4C)ccn3)[nH]2)ccc1F [Example 209, 5-(4-fluoro-3-methoxybenzyl)-N-(4-(5-((4-hydroxy-4-methylpentyl)oxy)-2-methylphenyl)pyridin-2-yl)-4H-1,2,4-triazole-3-carboxamide] | 100 to 1000
23 | Cc1ccc(OCCCC(C)(C)O)cc1-c1ccnc(NC(=O)c2nnc(Cc3cccc(C(F)(F)F)c3F)[nH]2)c1 [Example 210, 5-(2-fluoro-3-trifluoromethylbenzyl)-N-(4-(5-((4-hydroxy-4-methylpentyl)oxy)-2-methylphenyl)pyridin-2-yl)-4H-1,2,4-triazole-3-carboxamide] | 100 to 1000
24 | Cc1ccc(OCCCC(C)(C)O)cc1-c1ccnc(NC(=O)c2nnc(Cc3cc(C(F)(F)F)ccc3F)[nH]2)c1 [Example 211, 5-(2-fluoro-5-trifluoromethylbenzyl)-N-(4-(5-((4-hydroxy-4-methylpentyl)oxy)-2-methylphenyl)pyridin-2-yl)-4H-1,2,4-triazole-3-carboxamide] | 100 to 1000
25 | Cc1ccc(OCCCC(C)(C)O)cc1-c1ccnc(NC(=O)c2nnc(Cc3ccc(F)c(C(F)(F)F)c3)[nH]2)c1 [Example 212, 5-(4-fluoro-3-trifluoromethylbenzyl)-N-(4-(5-((4-hydroxy-4-methylpentyl)oxy)-2-methylphenyl)pyridin-2-yl)-4H-1,2,4-triazole-3-carboxamide] | 100 to 1000
26 | Cc1ccc(OCCCC(C)(C)O)cc1-c1ccnc(NC(=O)c2nnc(Cc3cc(F)cc(C(F)(F)F)c3)[nH]2)c1 [Example 213, 5-(3-fluoro-5-trifluoromethylbenzyl)-N-(4-(5-((4-hydroxy-4-methylpentyl)oxy)-2-methylphenyl)pyridin-2-yl)-4H-1,2,4-triazole-3-carboxamide] | 1000 to 10000
27 | Cc1ccc(OCCCC(C)(C)O)cc1-c1ccnc(NC(=O)c2nnc(Cc3ccc(F)c(F)c3F)[nH]2)c1 [Example 214, 5-(2,3,4-trifluorobenzyl)-N-(4-(5-((4-hydroxy-4-methylpentyl)oxy)-2-methylphenyl)pyridin-2-yl)-4H-1,2,4-triazole-3-carboxamide] | ≤ 100
28 | Cc1ccc(OCCCC(C)(C)O)cc1-c1ccnc(NC(=O)c2nnc(Cc3cc(F)cc(F)c3F)[nH]2)c1 [Example 215, 5-(2,3,5-trifluorobenzyl)-N-(4-(5-((4-hydroxy-4-methylpentyl)oxy)-2-methylphenyl)pyridin-2-yl)-4H-1,2,4-triazole-3-carboxamide] | ≤ 100
29 | Cc1ccc(OCCCC(C)(C)O)cc1-c1ccnc(NC(=O)c2nnc(Cc3c(F)ccc(F)c3F)[nH]2)c1 [Example 216, 5-(2,3,6-trifluorobenzyl)-N-(4-(5-((4-hydroxy-4-methylpentyl)oxy)-2-methylphenyl)pyridin-2-yl)-4H-1,2,4-triazole-3-carboxamide] | ≤ 100
30 | Cc1ccc(OCCCC(C)(C)O)cc1-c1ccnc(NC(=O)c2nnc(Cc3cc(F)c(F)c(F)c3)[nH]2)c1 [Example 217, 5-(3,4,5-trifluorobenzyl)-N-(4-(5-((4-hydroxy-4-methylpentyl)oxy)-2-methylphenyl)pyridin-2-yl)-4H-1,2,4-triazole-3-carboxamide] | 100 to 1000
